Reference: patent US7264956B2, “Compounds and methods for inhibiting axillary malodour” (Givaudan SA, priority 2001, dated 2007)

Tests used:
Corynebacterium jeikeium [1] = test: Cleavage of the natural malodour precursor by axilla isolate Ax19; assay type: cell-based; details: 500 ppm precursor, 24 h, 36° C., capillary GC
Description: (§1) The axillary flora of 8 panellists was isolated with the detergent-scrub method: A 6 cm^2 area of the axilla was scrubbed with a phosphate buffer at pH 7 containing 1% Tween 80. The samples were spread-plated on tryptic soy agar amended with 5 g/L of Tween 80 and 1 g/L of lecithin. Single isolates obtained after 48 h incubation were subcultured and characterised. A total of 24 individual strains were identified based on colony and cell morphology, gram-reaction, lipophilic growth, lipase reaction and API identification kits (bioMerieux, France; coryneforms with the API coryne kit and cocci with the ID Staph 32 kit). The strains were grown overnight in a liquid medium (Mueller-Hinton amended with 0.01% Tween 80), harvested by centrifugation and resuspended to a final OD600 of 1 in a semi-synthetic medium (Per litre: 3 g KH2PO4, 1.9 g K2HPO4, 0.2 g yeast extract, 0.2 g MgSO4, 1.4 g NaCl, 1 g NH4Cl, 10 mg MnCl2, 1 mg Fe3Cl2, 1 mg CaCl2). Aliquots of this stationary culture were then amended with a final concentration of 500 ppm of Nα-3-hydroxy-3-methyl-hexanoyl-L-glutamine (5% stock solution dissolved in methanol). After 24 h incubation (with shaking at 300 rpm; 36° C.) the samples were extracted and the amount of released 3-hydroxy-3-methyl-hexanoic acid was determined by capillary GC. […]

Micrococcus luteus = test: Cleavage of the natural malodour precursor by axilla isolate Ax9; assay type: cell-based; details: 500 ppm precursor, 24 h, 36° C., capillary GC
Description: as §1

Corynebacterium bovis = test: Cleavage of the natural malodour precursor by axilla isolate Ax3; assay type: cell-based; details: 500 ppm precursor, 24 h, 36° C., capillary GC
Description: as §1

[2] = tested on: Staphylococcus epidermidis; test: Cleavage of the natural malodour precursor by axilla isolate Ax6; assay type: cell-based; details: 500 ppm precursor, 24 h, 36° C., capillary GC
Description: as §1

Corynebacterium group G = test: Cleavage of the natural malodour precursor by axilla isolate Ax7; assay type: cell-based; details: 500 ppm precursor, 24 h, 36° C., capillary GC
Description: as §1

Staphylococcus capitis = test: Cleavage of the natural malodour precursor by axilla isolate Ax1; assay type: cell-based; details: 500 ppm precursor, 24 h, 36° C., capillary GC
Description: as §1

Corynebacterium striatum = test: Cleavage of the natural malodour precursor by axilla isolate Ax20; assay type: cell-based; details: 500 ppm precursor, 24 h, 36° C., capillary GC
Description: as §1

Corynebacterium jeikeium [3] = test: Cleavage of the natural malodour precursor by axilla isolate Ax15; assay type: cell-based; details: 500 ppm precursor, 24 h, 36° C., capillary GC
Description: as §1

[4] = target: T1, enzyme extracted from Corynebacterium striatum A×20 (AMRE, Nα-acyl-glutamine-aminoacylase) (Corynebacterium striatum, UniProt Q8GGD4); test: Substrate specificity of the enzyme (capillary GC of released acid or alcohol); assay type: biochemical; details: 500 ppm in Buffer A, 24 h incubation
T1 construct: an enzyme may be isolated from cellular extracts obtained from wild-type bacterial strains; endogenous in cells; host or cells: Corynebacterium striatum Ax20 (DSM 14267), mechanically disrupted; crude extract or chromatographically purified enzyme
Description: To understand in detail the structural requirements of substrates, the enzyme extracted from Corynebacterium striatum A×20 was incubated with a wide variety of said compounds related to the originally isolated Nα-3-methyl-3-hydroxy-hexanoyl-L-glutamine present in sweat. Each compound was used at a concentration of 500 ppm in Buffer A, and analysis of released acid or alcohol was done by capillary GC after 24 h of incubation. First, different modifications at the N-terminus were tested.

T1 sequence (Q8GGD4 2-400): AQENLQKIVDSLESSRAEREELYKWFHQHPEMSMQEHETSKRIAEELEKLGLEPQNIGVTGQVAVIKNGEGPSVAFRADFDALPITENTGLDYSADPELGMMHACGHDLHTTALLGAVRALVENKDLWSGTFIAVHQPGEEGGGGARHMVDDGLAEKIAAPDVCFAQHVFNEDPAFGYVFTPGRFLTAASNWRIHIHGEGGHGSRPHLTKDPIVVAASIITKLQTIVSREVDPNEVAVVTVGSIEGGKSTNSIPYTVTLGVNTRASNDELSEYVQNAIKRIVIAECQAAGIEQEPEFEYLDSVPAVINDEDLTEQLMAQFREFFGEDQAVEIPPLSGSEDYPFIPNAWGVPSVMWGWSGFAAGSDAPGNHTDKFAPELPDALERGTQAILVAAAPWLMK

For `CCCC(C)(O)CC(=O)N[C@@H](CCC(N)=O)C(=O)O` (stereo partly drawn) [compound 1, Nα-(3-hydroxy-3-methyl-hexanoyl)-L-glutamine], the 3-hydroxy-3-methyl-hexanoic acid released (Corynebacterium jeikeium [1]) was 105.1 ppm, the 3-hydroxy-3-methyl-hexanoic acid released (Micrococcus luteus) was 0 ppm and the 3-hydroxy-3-methyl-hexanoic acid released (Corynebacterium bovis) was 0 ppm. For the same molecule, the 3-hydroxy-3-methyl-hexanoic acid released [2] was 0 ppm, the 3-hydroxy-3-methyl-hexanoic acid released (Corynebacterium group G) was 0 ppm and the 3-hydroxy-3-methyl-hexanoic acid released (Staphylococcus capitis) was 0 ppm. The 3-hydroxy-3-methyl-hexanoic acid released (Corynebacterium striatum) was 262.7 ppm, the 3-hydroxy-3-methyl-hexanoic acid released (Corynebacterium jeikeium [3]) was 37.4 ppm and the Cleavage by enzyme [4] was “++ (++ cleavage 10–50%)”.
